# Assay results as given in US20230102554A1 (GB002, INC., priority 2019, published 2023).
# Columns and labels:
# [1] = target: T1, Human PDGFRβ, cytoplasmic domain (GST-PDGFRβ) (Homo sapiens, UniProt P09619); assay: Human PDGFRβ biochemical inhibition assay (off-chip Mobility Shift Assay)
# T1 construct: made in house
# Method in brief: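 GST-tagged cytoplasmic domain (aa 557-1106) from baculovirus was incubated 1 h at room temperature with compound, CSKtide, ATP at Km and Mg²⁺ in HEPES buffer, pH 7.5. Phosphorylated and unphosphorylated peptide were separated by off-chip mobility shift, and the product ratio P/(P+S) gave percent inhibition.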
# [2] = target: T2, Human PDGFRα, cytoplasmic domain (GST-PDGFRα) (Homo sapiens, UniProt P16234); assay: Human PDGFRα biochemical inhibition assay (off-chip Mobility Shift Assay)
# T2 construct: made in house
# T2 sequence (P16234 550-1089 T674I): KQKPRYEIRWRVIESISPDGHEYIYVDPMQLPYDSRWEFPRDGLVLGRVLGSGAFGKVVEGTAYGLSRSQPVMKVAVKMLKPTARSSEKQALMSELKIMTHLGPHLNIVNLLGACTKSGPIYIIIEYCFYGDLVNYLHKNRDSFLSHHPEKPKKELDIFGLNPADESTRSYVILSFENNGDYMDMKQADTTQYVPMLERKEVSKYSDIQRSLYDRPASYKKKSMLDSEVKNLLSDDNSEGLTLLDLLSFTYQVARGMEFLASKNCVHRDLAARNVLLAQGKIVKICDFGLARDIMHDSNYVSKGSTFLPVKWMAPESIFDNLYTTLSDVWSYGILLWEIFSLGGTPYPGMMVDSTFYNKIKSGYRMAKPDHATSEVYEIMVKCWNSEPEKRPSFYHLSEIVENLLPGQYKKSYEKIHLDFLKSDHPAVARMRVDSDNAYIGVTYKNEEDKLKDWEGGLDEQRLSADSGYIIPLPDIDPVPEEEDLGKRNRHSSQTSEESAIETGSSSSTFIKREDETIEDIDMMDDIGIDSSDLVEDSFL
# T1 sequence (P09619 with tags, fused parts or gaps): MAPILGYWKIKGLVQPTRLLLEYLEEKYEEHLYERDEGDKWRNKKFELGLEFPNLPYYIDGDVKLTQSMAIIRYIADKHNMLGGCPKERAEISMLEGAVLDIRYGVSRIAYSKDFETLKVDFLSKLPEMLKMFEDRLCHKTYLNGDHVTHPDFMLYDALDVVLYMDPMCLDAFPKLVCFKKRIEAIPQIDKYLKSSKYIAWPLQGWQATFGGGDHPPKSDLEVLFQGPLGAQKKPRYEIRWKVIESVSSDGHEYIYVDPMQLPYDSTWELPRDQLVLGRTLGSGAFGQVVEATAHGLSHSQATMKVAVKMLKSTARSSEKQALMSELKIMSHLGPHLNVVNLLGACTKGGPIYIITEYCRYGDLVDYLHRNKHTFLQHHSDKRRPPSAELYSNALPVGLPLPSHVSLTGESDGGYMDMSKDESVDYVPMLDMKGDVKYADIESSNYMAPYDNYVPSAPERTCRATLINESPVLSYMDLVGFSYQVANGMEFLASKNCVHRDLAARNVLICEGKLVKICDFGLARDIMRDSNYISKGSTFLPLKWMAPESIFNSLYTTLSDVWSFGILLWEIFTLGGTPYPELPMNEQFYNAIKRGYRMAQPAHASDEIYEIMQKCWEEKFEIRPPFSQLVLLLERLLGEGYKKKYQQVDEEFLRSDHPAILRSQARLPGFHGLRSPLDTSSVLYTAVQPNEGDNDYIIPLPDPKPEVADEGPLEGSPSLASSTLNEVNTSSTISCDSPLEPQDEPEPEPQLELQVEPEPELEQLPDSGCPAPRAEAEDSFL
Compound,IC50 [1] [nM],IC50 [2] [nM]
"Cc1cc(C(=O)Nc2ccc(F)c([C@H](C)Nc3cnc4cnn(C)c4n3)c2)cnc1NC(C)C [Compound 232, (S)-N-(4-fluoro-3-(1-((1-methyl-1H-pyrazolo[3,4-b]pyrazin-6-yl)amino)ethyl)phenyl)-6-(isopropylamino)-5-methylnicotinamide]",< 300,< 300
"CCc1ncc(C(=O)Nc2cccc([C@H](C)Nc3cnc4cnn(C)c4n3)c2)cc1C [Compound 233, (S)-6-ethyl-5-methyl-N-(3-(1-((1-methyl-1H-pyrazolo[3,4-b]pyrazin-6-yl)amino)ethyl)phenyl)nicotinamide]",< 300,< 300
"Cc1ccc(C(=O)Nc2cccc([C@H](C)Nc3cnc4cnn(C)c4n3)c2)cc1C [Compound 234, (S)-3,4-dimethyl-N-(3-(1-((1-methyl-1H-pyrazolo[3,4-b]pyrazin-6-yl)amino)ethyl)phenyl)benzamide]",< 300,< 300
"CSc1cc(C(=O)Nc2cccc([C@H](C)Nc3cnc4cnn(C)c4n3)c2)ccc1Cl [Compound 236, (S)-4-chloro-N-(3-(1-((1-methyl-1H-pyrazolo[3,4-b]pyrazin-6-yl)amino)ethyl)phenyl)-3-(methylthio)benzamide]",< 300,< 300
"Cc1cc(C(=O)Nc2cccc([C@H](C)Nc3cnc4cnn(C)c4n3)c2)ccc1CN1CCSCC1 [Compound 237, (S)-3-methyl-N-(3-(1-((1-methyl-1H-pyrazolo[3,4-b]pyrazin-6-yl)amino)ethyl)phenyl)-4-(thiomorpholinomethyl) benzamide]",< 300,< 300
"CSc1cc(C(=O)Nc2cccc([C@H](C)Nc3cnc4cnn(C)c4n3)c2)ccc1CN1CCN(C)CC1 [Compound 238, (S)-N-(3-(1-((1-methyl-1H-pyrazolo[3,4-b]pyrazin-6-yl)amino)ethyl)phenyl)-4-((4-methylpiperazin-1-yl)methyl)-3-(methylthio)benzamide]",< 300,< 300
"Cc1cc(C(=O)Nc2cccc([C@H](C)Nc3cnc4cnn(C)c4n3)c2)cnc1CN1CCOCC1 [Compound 239, (S)-5-methyl-N-(3-(1-((1-methyl-1H-pyrazolo[3,4-b]pyrazin-6-yl)amino)ethyl)phenyl)-6-(morpholinomethyl) nicotinamide]",< 300,< 300
"Cc1cc(C(=O)Nc2cccc([C@H](C)Nc3cnc4cnn(C)c4n3)c2)ccc1O [Compound 240, (S)-4-hydroxy-3-methyl-N-(3-(1-((1-methylH-pyrazolo[3,4-b]pyrazin-6-yl)amino)ethyl)phenyl)benzamide]",< 300,< 300
"C[C@H](Nc1cnc2cnn(C)c2n1)c1cccc(NC(=O)c2cncc(O)c2)c1 [Compound 241, (S)-5-hydroxy-N-(3-(1-((1-methyl-1H-pyrazolo[3,4-b]pyrazin-6-yl)amino)ethyl)phenyl)nicotinamide]",300 to 1000,< 300
"CCOc1cncc(C(=O)Nc2cccc([C@H](C)Nc3cnc4cnn(C)c4n3)c2)c1 [Compound 242, (S)-5-ethoxy-N-(3-(1-((1-methyl-1H-pyrazolo[3,4-b]pyrazin-6-yl)amino)ethyl)phenyl)nicotinamide]",< 300,< 300
"Cc1cc(C(=O)Nc2cccc([C@H](C)Nc3cnc4cnn(C)c4n3)c2)cnc1CN1CCN(C)CC1 [Compound 243, (S)-5-methyl-N-(3-(1-((1-methyl-1H-pyrazolo[3,4-b]pyrazin-6-yl)amino)ethyl)phenyl)-6-((4-methylpiperazin-1-yl)methyl)nicotinamide]",< 300,< 300
"Cc1cc(C(=O)Nc2cccc([C@H](C)Nc3cnc4cnn(C)c4n3)c2)cnc1CN1CCSCC1 [Compound 244, (S)-5-methyl-N-(3-(1-((1-methyl-1H-pyrazolo[3,4-b]pyrazin-6-yl)amino)ethyl)phenyl)-6-(thiomorpholinomethyl) nicotinamide]",< 300,< 300
"C=Cc1ncc(C(=O)Nc2cccc([C@H](C)Nc3cnc4cnn(C)c4n3)c2)cc1C [Compound 245, (S)-5-methyl-N-(3-(1-((1-methyl-1H-pyrazolo[3,4-b]pyrazin-6-yl)amino)ethyl)phenyl)-6-vinylnicotinamide]",< 300,< 300
"C=Cc1ccc(C(=O)Nc2cccc([C@H](C)Nc3cnc4cnn(C)c4n3)c2)cc1C [Compound 246, (S)-3-methyl-N-(3-(1-((1-methyl-1H-pyrazolo[3,4-b]pyrazin-6-yl)amino)ethyl)phenyl)-4-vinylbenzamide]",< 300,< 300
"COc1ncc(C(=O)Nc2cccc([C@H](C)Nc3cnc4cnn(C)c4n3)c2)cc1C(F)(F)F [Compound 247, (S)-6-methoxy-N-(3-(1-((1-methyl-1-pyrazolo[3,4-b]pyrazin-6-yl)amino)ethyl)phenyl)-5-(trifluoromethyl) nicotinamide]",< 300,< 300
"Cc1cc(C(=O)Nc2cccc([C@H](C)Nc3cnc4cnn(C)c4n3)c2)cnc1OC(C)C [Compound 248, (S)-6-isopropoxy-5-methyl-N-(3-(1-((1-methyl-1H-pyrazolo[3,4-b]pyrazin-6-yl)amino)ethyl)phenyl) nicotinamide]",< 300,< 300
"COc1cc(C(=O)Nc2cccc([C@H](C)Nc3cnc4cnn(C)c4n3)c2)cnc1Cl [Compound 249, (S)-6-chloro-5-methoxy-N-(3-(1-((1-methyl-1H-pyrazolo[3,4-b]pyrazin-6-yl)amino)ethyl)phenyl)nicotinamide]",< 300,< 300
"Cc1ncc(C(=O)Nc2cccc([C@H](C)Nc3cnc4cnn(C)c4n3)c2)cc1F [Compound 250, (S)-5-fluoro-6-methyl-N-(3-(1-((1-methyl-1H-pyrazolo[3,4-b]pyrazin-6-yl)amino)ethyl)phenyl)nicotinamide]",< 300,< 300
"CCc1ccc(C(=O)Nc2cccc([C@H](C)Nc3cnc4cnn(C)c4n3)c2)cc1C [Compound 251, (S)-4-ethyl-3-methyl-N-(3-(1-((1-methyl-1H-pyrazolo[3,4-b]pyrazin-6-yl)amino)ethyl)phenyl)benzamide]",< 300,< 300
"COc1cc(C(=O)Nc2cccc([C@H](C)Nc3cnc4cnn(C)c4n3)c2)cnc1C [Compound 252, (S)-5-methoxy-6-methyl-N-(3-(1-((1-methyl-1H-pyrazolo[3,4-b]pyrazin-6-yl)amino)ethyl)phenyl)nicotinamide]",< 300,< 300
"Cc1cc(C(=O)Nc2cccc([C@H](C)Nc3cnc4cnn(C)c4n3)c2)cnc1O [Compound 253, (S)-6-hydroxy-5-methyl-N-(3-(1-((1-methyl-1H-pyrazolo[3,4-b]pyrazin-6-yl)amino)ethyl)phenyl)nicotinamide]",≥ 1000,< 300
"CCCOC(=O)c1ccc(C(=O)Nc2cccc([C@H](C)Nc3cnc4cnn(C)c4n3)c2)cc1C [Compound 254, propyl (S)-2-methyl-4-((3-(1-((1-methyl-1H-pyrazolo[3,4-b]pyrazin-6-yl)amino)ethyl)phenyl)carbamoyl)benzoate]",< 300,< 300
"CCOC(=O)c1ccc(C(=O)Nc2cccc([C@H](C)Nc3cnc4cnn(C)c4n3)c2)cc1C [Compound 255, ethyl (S)-2-methyl-4-((3-(1-((1-methyl-1H-pyrazolo[3,4-b]pyrazin-6-yl)amino)ethyl)phenyl)carbamoyl)benzoate]",< 300,< 300
"CC(=O)OC(C)OC(=O)c1ccc(C(=O)Nc2cccc([C@H](C)Nc3cnc4cnn(C)c4n3)c2)cc1C (stereo partly drawn) [Compound 256, 1-acetoxyethyl 2-methyl-4-((3-((S)-1-((1-methyl-1H-pyrazolo[3,4-b]pyrazin-6-yl)amino)ethyl)phenyl)carbamoyl) benzoate]",< 300,< 300
"Cc1cc(C(=O)Nc2cccc([C@H](C)Nc3cnc4cnn(C)c4n3)c2)ccc1C(=O)OCCO [Compound 257, 2-hydroxyethyl (S)-2-methyl-4-((3-(1-((1-methyl-1H-pyrazolo[3,4-b]pyrazin-6-yl)amino)ethyl)phenyl)carbamoyl) benzoate]",< 300,< 300
"Cc1cc(C(=O)Nc2cccc([C@H](C)Nc3cnc4cnn(C)c4n3)c2)ccc1C(=O)OC(C)C [Compound 258, isopropyl (S)-2-methyl-4-((3-(1-((1-methyl-1H-pyrazolo[3,4-b]pyrazin-6-yl)amino)ethyl)phenyl)carbamoyl)benzoate]",< 300,< 300
"Cc1cc(C(=O)Nc2cccc([C@H](C)Nc3cnc4cnn(C)c4n3)c2)cnc1N1CC2(COC2)C1 [Compound 259, (S)-5-methyl-N-(3-(1-((1-methyl-1H-pyrazolo[3,4-b]pyrazin-6-yl)amino)ethyl)phenyl)-6-(2-oxa-6-azaspiro[3.3]heptan-6-yl) nicotinamide]",< 300,< 300
"Cc1cc(C(=O)Nc2cccc([C@H](C)Nc3cnc4cnn(C)c4n3)c2)cnc1N1CCSCC1 [Compound 260, (S)-5-methyl-N-(3-(1-((1-methyl-1H-pyrazolo[3,4-b]pyrazin-6-yl)amino)ethyl)phenyl)-6-thiomorpholinonicotinamide]",< 300,< 300
"COC(=O)c1ccc(C(=O)Nc2cccc([C@H](C)Nc3cnc4cnn(C)c4n3)c2)cc1OC [Compound 261, methyl (S)-2-methoxy-4-((3-(1-((1-methyl-1H-pyrazolo[3,4-b]pyrazin-6-yl)amino)ethyl)phenyl)carbamoyl)benzoate]",< 300,< 300
"CC(C)COc1ncc(C(=O)Nc2cccc([C@H](C)Nc3cnc4cnn(C)c4n3)c2)cc1Cl [Compound 262, (S)-5-chloro-6-isobutoxy-N-(3-(1-((1-methyl-1H-pyrazolo[3,4-b]pyrazin-6-yl)amino)ethyl)phenyl)nicotinamide]",< 300,< 300
